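48-hour exposure; five concentrations; linearly interpolated endpoints. GI50: concentration for 50% inhibition of growth. Definition used: TGI = concentration required for complete inhibition of growth.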
Tests used:
Assay in all cases: inhibition of tumour cell growth, NCI panel, 48 h
[1] = tested on: BT-549 breast
[2] = tested on: EKVX NSCLC
[3] = tested on: HS 578T breast
[4] = tested on: OVCAR-3 ovarian
[5] = tested on: OVCAR-8 ovarian
[6] = tested on: PC-3 prostate
[7] = tested on: SF-268 CNS
[8] = tested on: SF-539 CNS
[9] = tested on: SN12C renal
[10] = tested on: TK-10 renal

| SMILES | GI50 [1] [µM] | TGI [1] [µM] | GI50 [2] [µM] | TGI [2] [µM] | GI50 [3] [µM] | TGI [3] [µM] | GI50 [4] [µM] | TGI [4] [µM] | GI50 [5] [µM] | TGI [5] [µM] | GI50 [6] [µM] | TGI [6] [µM] | GI50 [7] [µM] | TGI [7] [µM] | GI50 [8] [µM] | TGI [8] [µM] | GI50 [9] [µM] | TGI [9] [µM] | GI50 [10] [µM] | TGI [10] [µM] |
| --- | --- | --- | --- | --- | --- | --- | --- | --- | --- | --- | --- | --- | --- | --- | --- | --- | --- | --- | --- | --- |
| C=C1CCC2C3(C)COC(c4ccc(NC(C)=O)cc4)OC3CCC2(C)C1C/C=C1/C(=O)OCC1O (centres undefined) | 1.86 | 9.35 | 2.71 | > 100 | > 100 | > 100 | > 100 | > 100 | 7.76 | > 100 | 3.39 | > 100 | > 100 | > 100 | > 100 | > 100 | > 100 | > 100 | 6.25 | > 100 |
| Cn1nc(C(F)(F)F)c(-c2ccc(Cl)c(C(F)(F)F)c2)c1-c1ccc(OCc2ccc(Cl)cc2)cc1O | 1.54 | 6.51 | 1.73 | 7.73 | 1.42 | 8.98 | 1.66 | 5.8 | 1.73 | 6.37 | 1.66 | 6.68 | 1.77 | 7.52 | 1.65 | 5.95 | 1.65 | 5.92 | 1.91 | 7.13 |
| CC(=O)Oc1ccc(OC(C)=O)c2ccccc12 | 13.5 | 26.6 | 10.4 | 24.7 | 13.2 | 67.1 | 3.55 | 12.9 | 6.66 | 22.7 | 6.24 | 25.6 | 10.5 | 22.3 | 13.2 | 26.4 | 14 | 27.5 | 17.2 | 31.5 |
| COc1ccc(-c2ccc(/C=C/C(=O)NO)cc2)cc1 | 1.53 | 25.9 | 2.23 | 12.9 | 3.15 | 56.3 | 0.518 | 2.76 | 0.896 | 4.62 | 1.09 | 12.3 | 0.982 | 5.58 | 0.913 | 5.18 | 0.864 | 10.9 | 1.55 | 21.3 |
| O=C1NC(=O)/C(=C/C=C/c2ccccc2)S1 | 2.34 | 58.1 | 6.1 | > 100 | 13.4 | > 100 | 2.88 | 33.1 | 3.48 | > 100 | 19.4 | > 100 | 2.96 | > 70.2 | 0.384 | 3.16 | 2.05 | > 100 | 28.6 | > 100 |
| CC1(C)N=C(N)N=C(N)N1c1cccc(C#N)c1 | 27.9 | > 100 | 1.09 | > 100 | 71.6 | > 100 | 19 | > 100 | 0.599 | > 100 | 2.66 | > 100 | 0.692 | > 100 | 3.74 | > 100 | 6.1 | > 100 | 18.2 | > 100 |
| Nc1ncnc2c1c(C(F)(F)F)cn2[C@@H]1O[C@H](CO)[C@@H](O)[C@H]1O | 0.192 | 3.44 | 1.23 | > 27.3 | 0.813 | 7.54 | 0.398 | > 100 | 0.595 | > 100 | 0.0725 | – | 1.19 | > 26.3 | 0.642 | 2.73 | 0.157 | > 100 | 0.926 | > 100 |

Reference: PubChem BioAssay (NCI)
